This assay deals with human TH17 cells. Put plainly: Inhibition of IL-17 release from human TH17 cells. It counts as cell-based. The conditions noted are these: 96 h, isolated human TH17 cells, 4 days culture, IL-17A by HTRF, read-out: pIC50 IL-17 release (converted). The text has this:
Inhibition of IL-17 Release from Human TH17 Cells (IL-17 Release)
This test is designed to screen compounds for their inhibitory effect on the release of IL-17 from isolated and cultured human TH17 cells.
Peripheral blood mononuclear cells (PBMC) were isolated from heparin treated human whole blood fromhealthy donors by density gradient centrifugation. TH17 cells (CD4+CXCR3-CCR6+) were enriched using a human TH17 Cell Enrichment Kit (Stemcell Technologies) according to the manufacturer's protocol. […] On day 4 supernatants were collected and IL-17A was measured using a Human IL-17 HTRF Assay kit (Cisbio Bioassays) according to the manufacturer's protocol. […] Results

Results on 26 compounds are retold here after patent publication US10988445B2 (AstraZeneca AB, priority 2015, dated 2021).

Where two headings read alike, the source gives them in different places.

As to `CS(=O)(=O)c1ccc2c(c1)CN(C(=O)CCF)C2C(=O)Nc1ccc(C(O)(C(F)(F)F)C(F)(F)F)cc1` (centres unmarked) [Example 415, 2-(3-Fluoropropanoyl)-N-[4-(1,1,1,3,3,3-hexafluoro-2-hydroxypropan-2-yl)phenyl]-5-(methylsulfonyl)-2,3-dihydro-1H-isoindole-1-carboxamide], where the note is “Homo sapiens”, the IC50 was 31.6 nM. Still for that read-out and setting: to `CCOC1(C(=O)N2Cc3cc(S(C)(=O)=O)ccc3C2C(=O)Nc2ccc(C(O)(C(F)(F)F)C(F)(F)F)cc2)CC1` (centres unmarked) [Example 416, 2-[(1-Ethoxycyclopropyl)carbonyl]-N-[4-(1,1,1,3,3,3-hexafluoro-2-hydroxypropan-2-yl)phenyl]-5-(methylsulfonyl)-2,3-dihydro-1H-isoindole-1-carboxamide] belongs 31.6 nM. For the compound `COC1(CC(=O)N2Cc3cc(S(C)(=O)=O)ccc3C2C(=O)Nc2ccc(C(O)(C(F)(F)F)C(F)(F)F)cc2)CC1` (centres unmarked) [Example 417, N-[4-(1,1,1,3,3,3-Hexafluoro-2-hydroxypropan-2-yl)phenyl]-2-[(1-methoxycyclopropyl)acetyl]-5-(methylsulfonyl)-2,3-dihydro-1H-isoindole-1-carboxamide], under “Homo sapiens”, the IC50 was 31.6 nM. On the same count and under the same terms, to `C[C@@H](F)CC(=O)N1Cc2cc(S(C)(=O)=O)ccc2C1C(=O)Nc1ccc(C(O)(C(F)(F)F)C(F)(F)F)cc1` (stereo partly drawn) [Example 418, 2-[(3R)-3-Fluorobutanoyl]-N-[4-(1,1,1,3,3,3-hexafluoro-2-hydroxypropan-2-yl)phenyl]-5-(methylsulfonyl)-2,3-dihydro-1H-isoindole-1-carboxamide] belongs 39.8 nM.

Turning to `COC(C)(C)C(=O)N1Cc2cc(S(C)(=O)=O)ccc2C1C(=O)Nc1ccc(C(O)(C(F)(F)F)C(F)(F)F)cc1` (centres unmarked) [Example 419, N-[4-(1,1,1,3,3,3-Hexafluoro-2-hydroxypropan-2-yl)phenyl]-2-(2-methoxy-2-methylpropanoyl)-5-(methylsulfonyl)-2,3-dihydro-1H-isoindole-1-carboxamide], the IC50 (Homo sapiens) is 50.1 nM. Still for that read-out and setting: to `CC(C)OC(=O)N1Cc2cc(S(C)(=O)=O)ccc2C1C(=O)Nc1ccc(C(O)(C(F)(F)F)C(F)(F)F)cc1` (centres unmarked) [Example 420, Propan-2-yl 1-{[4-(1,1,1,3,3,3-hexafluoro-2-hydroxypropan-2-yl)phenyl]carbamoyl}-5-(methylsulfonyl)-1,3-dihydro-2H-isoindole-2-carboxylate] belongs 79.4 nM; to `CC(C)(O)CC(=O)N1Cc2cc(S(C)(=O)=O)ccc2C1C(=O)Nc1ccc(C(O)(C(F)(F)F)C(F)(F)F)cc1` (centres unmarked) [Example 421, N-[4-(1,1,1,3,3,3-Hexafluoro-2-hydroxypropan-2-yl)phenyl]-2-(3-hydroxy-3-methylbutanoyl)-5-(methylsulfonyl)-2,3-dihydro-1H-isoindole-1-carboxamide], 100 nM; to `CC(CO)C(=O)N1Cc2cc(S(C)(=O)=O)ccc2C1C(=O)Nc1ccc(C(O)(C(F)(F)F)C(F)(F)F)cc1` (centres unmarked) [Example 425, N-[4-(1,1,1,3,3,3-Hexafluoro-2-hydroxypropan-2-yl)phenyl]-2-(3-hydroxy-2-methylpropanoyl)-5-(methylsulfonyl)-2,3-dihydro-1H-isoindole-1-carboxamide], 79.4 nM. Same read-out and setting: to `CS(=O)(=O)c1ccc2c(c1)CN(C(=O)CC1(C#N)CC1)C2C(=O)Nc1ccc(C(O)(C(F)(F)F)C(F)(F)F)cc1` (centres unmarked) [Example 427, 2-[(1-Cyanocyclopropyl)acetyl]-N-[4-(1,1,1,3,3,3-hexafluoro-2-hydroxypropan-2-yl)phenyl]-5-(methylsulfonyl)-2,3-dihydro-1H-isoindole-1-carboxamide] belongs 100 nM; to `CS(=O)(=O)c1ccc2c(c1)CN(C(=O)C1CC(O)C1)C2C(=O)Nc1ccc(C(O)(C(F)(F)F)C(F)(F)F)cc1` (stereo not drawn) [Example 430, N-[4-(1,1,1,3,3,3-Hexafluoro-2-hydroxypropan-2-yl)phenyl]-2-[(trans-3-hydroxycyclobutyl)carbonyl]-5-(methylsulfonyl)-2,3-dihydro-1H-isoindole-1-carboxamide], 126 nM.

On to `C[C@H](O)CC(=O)N1Cc2cc(S(C)(=O)=O)ccc2C1C(=O)Nc1ccc(C(O)(C(F)(F)F)C(F)(F)F)cc1` (stereo partly drawn) [Example 433, N-[4-(1,1,1,3,3,3-Hexafluoro-2-hydroxypropan-2-yl)phenyl]-2-[(3S)-3-hydroxybutanoyl]-5-(methylsulfonyl)-2,3-dihydro-1H-isoindole-1-carboxamide], for which the IC50 (Homo sapiens) is 79.4 nM. On the same count and under the same terms, the result for `COC1(C(=O)N2Cc3cc(S(C)(=O)=O)ccc3C2C(=O)Nc2ccc(C(O)(C(F)(F)F)C(F)(F)F)cc2)CCCC1` (centres unmarked) [Example 434] reads 25.1 nM. `CC(=O)N1Cc2cc(S(C)(=O)=O)ccc2C1C(=O)Nc1ccc(C(O)(C(F)(F)F)C(F)(F)F)c(F)c1` (centres unmarked) [Example 435, 2-Acetyl-N-[3-fluoro-4-(1,1,1,3,3,3-hexafluoro-2-hydroxypropan-2-yl)phenyl]-5-(methylsulfonyl)-2,3-dihydro-1H-isoindole-1-carboxamide]: under “Homo sapiens”, the IC50 is 20 nM. `CS(=O)(=O)c1ccc2c(c1)CN(C(=O)C1(C#N)CC1)C2C(=O)Nc1ccc(C(O)(C(F)(F)F)C(F)(F)F)cc1F` (centres unmarked) [Example 436, 2-[(1-Cyanocyclopropyl)carbonyl]-N-[2-fluoro-4-(1,1,1,3,3,3-hexafluoro-2-hydroxypropan-2-yl)phenyl]-5-(methylsulfonyl)-2,3-dihydro-1H-isoindole-1-carboxamide]: the IC50 (Homo sapiens) is 15.8 nM.

Consider `CC(=O)N1Cc2cc(S(C)(=O)=O)ccc2C1C(=O)Nc1ccc(C(O)(C(F)(F)F)C(F)(F)F)cc1F` (centres unmarked) [Example 437, 2-Acetyl-N-[2-fluoro-4-(1,1,1,3,3,3-hexafluoro-2-hydroxypropan-2-yl)phenyl]-5-(methylsulfonyl)-2,3-dihydro-1H-isoindole-1-carboxamide], for which the IC50 (Homo sapiens) was 20 nM.

Regarding `CS(=O)(=O)c1ccc2c(c1)CN(C(=O)C1(C#N)CC1)C2C(=O)Nc1ccc(C(O)(C(F)(F)F)C(F)(F)F)c(F)c1` (centres unmarked) [Example 439, 2-[(1-Cyanocyclopropyl)carbonyl]-N-[3-fluoro-4-(1,1,1,3,3,3-hexafluoro-2-hydroxypropan-2-yl)phenyl]-5-(methylsulfonyl)-2,3-dihydro-1H-isoindole-1-carboxamide], for the setting “Homo sapiens”, the IC50 was 25.1 nM. The same measure, in the same setting: the result for `COC1(C(=O)N2Cc3cc(S(C)(=O)=O)ccc3C2C(=O)Nc2ccc(C(O)(C(F)(F)F)C(F)(F)F)c(F)c2)CC1` (centres unmarked) [Example 440, N-[3-Fluoro-4-(1,1,1,3,3,3-hexafluoro-2-hydroxypropan-2-yl)phenyl]-2-[(1-methoxycyclopropyl)carbonyl]-5-(methylsulfonyl)-2,3-dihydro-1H-isoindole-1-carboxamide] reads 31.6 nM. The same measure, in the same setting: to `COC1(C(=O)N2Cc3cc(S(C)(=O)=O)ccc3C2C(=O)Nc2ccc(C(O)(C(F)(F)F)C(F)(F)F)cc2F)CC1` (centres unmarked) [Example 441, N-[2-Fluoro-4-(1,1,1,3,3,3-hexafluoro-2-hydroxypropan-2-yl)phenyl]-2-[(1-methoxycyclopropyl)carbonyl]-5-(methylsulfonyl)-2,3-dihydro-1H-isoindole-1-carboxamide] belongs 25.1 nM. Same read-out and setting: to `CS(=O)(=O)c1ccc2c(c1)CN(C=O)C2C(=O)Nc1ccc(C(O)(C(F)(F)F)C(F)(F)F)cc1F` (centres unmarked) [Example 442] belongs 50.1 nM. `CC1(C(=O)N2Cc3cc(S(C)(=O)=O)ccc3C2C(=O)Nc2ccc(C(O)(C(F)(F)F)C(F)(F)F)cc2)COC1` (centres unmarked) [Example 443]: under “Homo sapiens”, the IC50 was 100 nM.

In the case of `CS(=O)(=O)c1ccc2c(c1)CN(C(=O)C1COC1)C2C(=O)Nc1ccc(C(O)(C(F)(F)F)C(F)(F)F)cc1` (centres unmarked) [Example 444, N-[4-(1,1,1,3,3,3-Hexafluoro-2-hydroxypropan-2-yl)phenyl]-5-(methylsulfonyl)-2-(oxetan-3-ylcarbonyl)-2,3-dihydro-1H-isoindole-1-carboxamide], the IC50 (Homo sapiens) is 63.1 nM.

`CS(=O)(=O)c1ccc2c(c1)CN(C(=O)C1(F)CC1)C2C(=O)Nc1ccc(C(O)(C(F)(F)F)C(F)(F)F)cc1` (centres unmarked) [Example 446, 2-[(1-Fluorocyclopropyl)carbonyl]-N-[4-(1,1,1,3,3,3-hexafluoro-2-hydroxypropan-2-yl)phenyl]-5-(methylsulfonyl)-2,3-dihydro-1H-isoindole-1-carboxamide]: under “Homo sapiens”, the IC50 was 31.6 nM. The same measure, in the same setting: the result for `CCC(OC)C(=O)N1Cc2cc(S(C)(=O)=O)ccc2C1C(=O)Nc1ccc(C(O)(C(F)(F)F)C(F)(F)F)cc1` (centres unmarked) [Example 447, N-[4-(1,1,1,3,3,3-Hexafluoro-2-hydroxypropan-2-yl)phenyl]-2-(2-methoxybutanoyl)-5-(methylsulfonyl)-2,3-dihydro-1H-isoindole-1-carboxamide] reads 50.1 nM. Regarding `COC1(C(=O)N2Cc3cc(S(C)(=O)=O)ccc3C2C(=O)Nc2ccc(C(O)(C(F)(F)F)C(F)(F)F)cc2)CCC1` (centres unmarked) [Example 448, N-[4-(1,1,1,3,3,3-Hexafluoro-2-hydroxypropan-2-yl)phenyl]-2-[(1-methoxycyclobutyl)carbonyl]-5-(methylsulfonyl)-2,3-dihydro-1H-isoindole-1-carboxamide], the IC50 was 79.4 nM. With `CCNC(=O)N1Cc2cc(S(C)(=O)=O)ccc2C1C(=O)Nc1ccc(C(O)(C(F)(F)F)C(F)(F)F)cc1` (centres unmarked) [Example 454, N^2-Ethyl-N^1-[4-(1,1,1,3,3,3-hexafluoro-2-hydroxypropan-2-yl)phenyl]-5-(methylsulfonyl)-1,3-dihydro-2H-isoindole-1,2-dicarboxamide], the IC50 (Homo sapiens) was 39.8 nM. `CS(=O)(=O)c1ccc2c(c1)CN(C(N)=O)C2C(=O)Nc1ccc(C(O)(C(F)(F)F)C(F)(F)F)cc1` (centres unmarked) [Example 455, N^1-[4-(1,1,1,3,3,3-Hexafluoro-2-hydroxypropan-2-yl)phenyl]-5-(methylsulfonyl)-1,3-dihydro-2H-isoindole-1,2-dicarboxamide]: the IC50 (Homo sapiens) is 100 nM.
